Each structure is given as a SMILES string. The source made the active and inactive calls. The rule behind the calls is not given here.

This note sets out measurements from ChEMBL document CHEMBL1144641, “DNA cleavage promoted by 2,9-dimethyl-4,7-diazadecane-2,9-dithiol (DDD) derivatives” (Bioorg Med Chem Lett, 2007).

Assay type in all cases: nucleic-acid assay
Settings in all cases: Escherichia coli

In assay [1] the test system is Nucleic Acid. The assay is described as follows: DNA cleavage activity assessed as conversion of supercoiled pUC19 plasmid to nicked form at pH 7 after 24 hrs.
Assay [2] deals with Nucleic Acid. The assay is described as follows: DNA cleavage activity assessed as conversion of supercoiled pUC19 plasmid to nicked form at pH 7 after 24 hrs in presence of hydrogen peroxide.
Assay [3] deals with Nucleic Acid. Briefly: DNA cleavage activity assessed as conversion of supercoiled pUC19 plasmid to nicked form at 0.286 mM at pH 7 after 24 hrs.
Assay [4] has as its system Nucleic Acid. The assay is described as follows: DNA cleavage activity assessed as conversion of supercoiled pUC19 plasmid to nicked form at pH 7 after 12 hrs.
For assay [5], the system named is Nucleic Acid. Briefly: DNA cleavage activity assessed as conversion of supercoiled pUC19 plasmid to nicked form at pH 7 after 1 hr.
The subject of assay [6] is Nucleic Acid. The assay is described as follows: DNA cleavage activity assessed as conversion of supercoiled pUC19 plasmid to nicked form at pH 7 after 24 hrs in presence of sodium azide.
Assay [7] deals with Nucleic Acid. Briefly: DNA cleavage activity assessed as conversion of supercoiled pUC19 plasmid to nicked form at pH 7 after 24 hrs in presence of sodium iodide.
Assay [8] has as its system Nucleic Acid. The assay is described as follows: DNA cleavage activity assessed as conversion of supercoiled pUC19 plasmid to nicked form at pH 7 after 24 hrs in presence of tertiary-butyl alcohol.

For `CC(C)(S)CNCCN(CCN1CCCCC1)CC(C)(C)S`, the Activity in the assay with Nucleic Acid [1] came out at 74.8%.

Take `CC1CCN(CCN(CCNCC(C)(C)S)CC(C)(C)S)CC1`: the outcome in the assay on Nucleic Acid [2] and with Nucleic Acid [3] was Active. For the same molecule, the Activity in the assay with Nucleic Acid [4] is 40.4%; in the assay with Nucleic Acid [1], 100%; in the assay with Nucleic Acid [5], 30.9%. The result with Nucleic Acid [6], in the assay on Nucleic Acid [7] and with Nucleic Acid [8] was inactive.

On to `CC1CC(C)CN(CCN(CCNCC(C)(C)S)CC(C)(C)S)C1` (stereo not given), for which the Activity with Nucleic Acid [1] worked out at 48.2%.
